From paper PMC6713165, “Identification of 1H-pyrazolo[3,4-b]pyridine derivatives as potent ALK-L1196M inhibitors” (Journal of Enzyme Inhibition and Medicinal Chemistry, 2019) come the findings set out here.

Like-named read-outs stand apart in the source and are kept apart here. Where only a bound is given, the exact number is not on record here.

For one data set, the target named is ALK-wt (Homo sapiens, UniProt Q9UM73). The data set can be described thus: Radiometric biochemical kinase assay, ALK-wt. The following applies: radiometric kinase assay, 10 µM ATP; for IC50: read-out: IC50 ALK-wt. How it is done: (§1) Biochemical kinase assay was performed by methods previously reported. Kinase reactions of all test compounds except 10g were carried out at 10 µM ATP. Kinase reaction of 10g was performed at three different concentrations of ATP (10/50/100 µM).

Another data set concerns the target ALK-L1196M (Homo sapiens, UniProt Q9UM73, L1196M). The data set can be described thus: Radiometric biochemical kinase assay, ALK-L1196M. The following applies: for IC50: radiometric kinase assay, 10 µM ATP. How it is done: as §1
Another data set concerns ALK wt-TEL Ba/F3 cells. The data set can be described thus: Anti-proliferation assay (CTG), ALK wt-TEL Ba/F3. Type of data set: cell-based. The following applies: 72 h, CTG, mean ± SD of three independent experiments; for GI50: Mus musculus, BaF3, read-out: GI50 Ba/F3 cell lines ALK wt-TEL. How it is done:
(§2) ALK wt-TEL, ALK L1196M-TEL transformed Ba/F3 and H2228 cell lines were cultured in RPMI1640 (Welgene, # LM011-01). […] Parental Ba/F3 cells were cultured in RPMI1640 media supplemented with 10% foetal bovine serum and 1% penicillin/streptomycin solution in the presence of IL-3. The cells were maintained in a humidified atmosphere containing 5% CO2 at 37 °C.
(§3) Cells (ALK wt-TEL, ALK L1196M-TEL and Parental Ba/F3: 1 × 10^4, H2228: 5 × 10^3) were plated in 96 well tissue culture plates. Each compound was added to each well at 10 dose points of three-fold serial dilution in DMSO. After treatment with each compound for 72 h, CTG assay solution (Promega, # G7572) was added to each well.

For data set [1], the system named is ALK L1196M-TEL Ba/F3 cells. The data set can be described thus: Anti-proliferation assay (CTG), ALK L1196M-TEL Ba/F3. It counts as cell-based. The settings on record: for GI50: Mus musculus, BaF3, read-out: GI50 Ba/F3 cell lines ALKL1196M-TEL; for differential cytotoxicity against ALK-L1196M Ba/F3 cells vs. parental Ba/F3 cells compared with crizotinib: in words. How it is done: as §2, §3

For another data set, the system named is H2228 (EML4-ALK) cells. The data set can be described thus: Anti-proliferation assay (CTG), H2228. It counts as cell-based. The settings on record: mean ± SD of three independent experiments; for GI50 H2228 (EML4-ALK): 72 h; for GI50: Homo sapiens, NCI-H2228, 72 h. How it is done:
as §2, §3

A further data set concerns Parental Ba/F3 cells. Description: Anti-proliferation assay (CTG), parental Ba/F3. It counts as cell-based. The following applies: with IL-3, mean ± SD of three independent experiments; for GI50 Ba/F3 cell lines Parental: 72 h; for GI50: Mus musculus, BaF3, 72 h, read-out: GI50 Ba/F3 cell lines Parental. As for the experimental part:
as §2, §3

A short description of data set [2]: Permeability assessment using Caco-2 cells. Type of data set: in vitro ADME, human. The following applies: human; for efflux ratio at 120 min, 10 µM / Papp B→A at 120 min, 10 µM: Caco-2, 10 µM. As for the experimental part: (§4) Stock solutions (10 mM) of reference compounds and 10g were diluted to a concentration of 10 µM with the transport buffer (HBSS + 1%BSA) and the test compounds were applied to the apical or basolateral side of the cell monolayer. […] In addition, the efflux ratio of each compound was also determined. Reference compounds and 10g were quantified by LC-MS/MS analysis based on the peak area ratio of analyte/the internal standard.

The subject of another data set is Caco-2 cells. Description: Permeability assessment using Caco-2 cells. Type of data set: in vitro ADME, human. The following applies: P-gp substrate status from efflux ratio. How it is done:
as §4

[3] abbreviates: 72 h, CTG, mean ± SD of three independent experiments.
[4] abbreviates: Caco-2, Caco-2, 10 µM, 120 min, 37 °C, HBSS + 1%BSA, read-out: Mean Papp A to B.
Where [5] appears, read: Caco-2, Caco-2, 10 µM, 120 min, read-out: Mean recovery % A to B.
[6] abbreviates: Caco-2, Caco-2, 10 µM, 120 min, read-out: Mean recovery % B to A.
Where [7] appears, read: Caco-2, Caco-2 permeability class from Papp (A to B), read-out: Rank Papp.

Chain of ALK-L1196M (Q9UM73 19-1620 L1196M): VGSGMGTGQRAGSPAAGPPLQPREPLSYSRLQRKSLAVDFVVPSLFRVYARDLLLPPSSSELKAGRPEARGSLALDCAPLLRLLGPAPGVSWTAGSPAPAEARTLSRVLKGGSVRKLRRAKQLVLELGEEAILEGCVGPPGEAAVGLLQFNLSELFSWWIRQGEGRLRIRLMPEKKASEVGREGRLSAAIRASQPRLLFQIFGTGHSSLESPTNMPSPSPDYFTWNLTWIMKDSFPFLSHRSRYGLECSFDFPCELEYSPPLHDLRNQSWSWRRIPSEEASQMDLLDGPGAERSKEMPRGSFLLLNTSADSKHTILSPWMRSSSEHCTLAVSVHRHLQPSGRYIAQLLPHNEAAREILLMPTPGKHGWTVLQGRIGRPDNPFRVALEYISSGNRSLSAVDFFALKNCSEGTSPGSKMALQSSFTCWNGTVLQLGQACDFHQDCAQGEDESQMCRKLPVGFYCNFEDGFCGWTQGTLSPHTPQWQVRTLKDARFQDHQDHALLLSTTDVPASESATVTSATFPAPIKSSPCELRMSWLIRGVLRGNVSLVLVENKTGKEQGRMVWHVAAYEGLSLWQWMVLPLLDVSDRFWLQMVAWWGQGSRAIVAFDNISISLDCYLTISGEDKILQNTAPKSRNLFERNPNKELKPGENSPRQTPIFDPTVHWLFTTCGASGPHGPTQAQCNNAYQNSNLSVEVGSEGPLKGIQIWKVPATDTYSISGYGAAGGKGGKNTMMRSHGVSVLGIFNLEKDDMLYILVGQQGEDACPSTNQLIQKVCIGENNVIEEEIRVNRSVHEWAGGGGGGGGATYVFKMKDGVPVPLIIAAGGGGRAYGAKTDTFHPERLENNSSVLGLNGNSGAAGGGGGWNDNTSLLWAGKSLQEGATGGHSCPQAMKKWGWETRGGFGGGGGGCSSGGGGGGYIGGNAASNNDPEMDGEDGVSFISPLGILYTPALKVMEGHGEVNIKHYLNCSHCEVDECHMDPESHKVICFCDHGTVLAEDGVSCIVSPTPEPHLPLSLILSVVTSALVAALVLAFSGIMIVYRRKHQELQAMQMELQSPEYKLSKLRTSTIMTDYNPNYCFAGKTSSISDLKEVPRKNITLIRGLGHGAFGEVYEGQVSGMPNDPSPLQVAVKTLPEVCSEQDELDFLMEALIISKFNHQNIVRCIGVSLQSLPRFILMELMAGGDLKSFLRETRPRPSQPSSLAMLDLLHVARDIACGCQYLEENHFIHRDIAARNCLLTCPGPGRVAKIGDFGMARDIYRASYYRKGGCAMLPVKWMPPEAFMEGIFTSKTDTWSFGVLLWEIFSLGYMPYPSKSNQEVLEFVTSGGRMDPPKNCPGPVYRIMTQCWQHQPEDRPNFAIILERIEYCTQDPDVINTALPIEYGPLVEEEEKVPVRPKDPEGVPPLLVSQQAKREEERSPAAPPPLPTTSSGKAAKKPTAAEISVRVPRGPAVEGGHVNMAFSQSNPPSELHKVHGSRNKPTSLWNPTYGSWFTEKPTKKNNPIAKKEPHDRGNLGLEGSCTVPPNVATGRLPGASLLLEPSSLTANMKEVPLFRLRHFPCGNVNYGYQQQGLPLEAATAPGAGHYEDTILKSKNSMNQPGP
Chain of ALK-wt (Q9UM73 19-1620): as the sequence (Q9UM73 19-1620 L1196M) above, with M1178L counted along it

Consider `N#Cc1ccc(C(=O)Nc2n[nH]c3ncc(S(=O)(=O)c4cccc(F)c4)cc23)cc1` [10a, 4-Cyano-N-(5-((3-fluorophenyl)sulfonyl)-1H-pyrazolo[3,4-b]pyridin-3-yl)benzamide], for which the IC50 – broadly, the point on the concentration scale where inhibition reaches its midpoint – on ALK-wt came out at 453 nM.
Turning to `O=C(Nc1n[nH]c2ncc(S(=O)(=O)c3cccc(F)c3)cc12)c1cccc(C(F)(F)F)c1` [10b, N-(5-((3-Fluorophenyl)sulfonyl)-1H-pyrazolo[3,4-b]pyridin-3-yl)-3-(trifluoromethyl)benzamide], the “IC50 ALK-wt” value on ALK-wt is reported as “little to no activity”.
With `O=C(Nc1n[nH]c2ncc(S(=O)(=O)c3cccc(F)c3)cc12)c1ccc(C(F)(F)F)cc1` [10c, N-(5-((3-Fluorophenyl)sulfonyl)-1H-pyrazolo[3,4-b]pyridin-3-yl)-4-(trifluoromethyl)benzamide], the “IC50 ALK-wt” value at ALK-wt is given as “little to no activity”.
For `COc1ccc(C(=O)Nc2n[nH]c3ncc(S(=O)(=O)c4cccc(F)c4)cc23)cc1` [10d, N-(5-((3-Fluorophenyl)sulfonyl)-1H-pyrazolo[3,4-b]pyridin-3-yl)-4-methoxybenzamide], the “activity against ALK-L1196M relative to crizotinib” value at ALK-L1196M (IC50 19 nM vs 980 nM of crizotinib) is recorded as 50 fold. The IC50 was determined as 19 nM against ALK-L1196M and 69 nM at ALK-wt. For the same molecule, the “GI50 Ba/F3 cell lines ALK wt-TEL” value in the data set on ALK wt-TEL Ba/F3 cells is “Inactive”. Moreover, the “GI50 Ba/F3 cell lines ALKL1196M-TEL” value in data set [1] (setting [3]) is given as “Inactive”. In addition, the “GI50 H2228 (EML4-ALK)” value in the data set with H2228 (EML4-ALK) cells was “Inactive”. The “GI50 Ba/F3 cell lines Parental” value in the data set on Parental Ba/F3 cells is recorded as “Inactive”.
Regarding `CN(C)c1ccc(C(=O)Nc2n[nH]c3ncc(S(=O)(=O)c4cccc(F)c4)cc23)cc1` [10e, 4-(Dimethylamino)-N-(5-((3-fluorophenyl)sulfonyl)-1H-pyrazolo[3,4-b]pyridin-3-yl)benzamide], the 50% inhibitory concentration (IC50) worked out at 0.7 nM at ALK-L1196M and 7.3 nM at ALK-wt. Besides, the results for the GI50 (with ALK wt-TEL Ba/F3 cells; in data set [1] (setting [3]); with H2228 (EML4-ALK) cells) were 1770 ± 690 nM, 4550 ± 720 nM and 8540 ± 780 nM, respectively. Besides, the “differential cytotoxicity against ALK-L1196M Ba/F3 cells vs. parental Ba/F3 cells compared with crizotinib” value (from here on “differential cytotoxicity”) in data set [1] is “higher differential cytotoxicities”. Further, the “GI50 Ba/F3 cell lines Parental” value in the data set with Parental Ba/F3 cells was “Inactive”.
Consider `O=C(Nc1n[nH]c2ncc(S(=O)(=O)c3cccc(F)c3)cc12)c1ccc(N2CCOCC2)cc1` [10f, N-(5-((3-Fluorophenyl)sulfonyl)-1H-pyrazolo[3,4-b]pyridin-3-yl)-4-morpholinobenzamide], for which the IC50 at ALK-L1196M stood at 1.4 nM. Besides, the “IC50 ALK-wt” value at ALK-wt was “Picomolar inhibitory activity”. For the same molecule, the GI50 in the data set on ALK wt-TEL Ba/F3 cells came out at 916 ± 500 nM; in data set [1] (setting [3]), 2530 ± 1500 nM; in the data set with H2228 (EML4-ALK) cells, 1690 ± 400 nM. The “differential cytotoxicity” value in data set [1] was “higher differential cytotoxicities”. Also, in the data set with Parental Ba/F3 cells, the “GI50 Ba/F3 cell lines Parental” value was “Inactive”.
For the molecule `CN1CCN(c2cccc(C(=O)Nc3n[nH]c4ncc(S(=O)(=O)c5cccc(F)c5)cc34)c2)CC1` [10h, N-(5-((3-Fluorophenyl)sulfonyl)-1H-pyrazolo[3,4-b]pyridin-3-yl)-3–(4-methylpiperazin-1-yl)benzamide], the results for the GI50 (with ALK wt-TEL Ba/F3 cells; in data set [1] (setting [3]); in the data set with Parental Ba/F3 cells) were 3350 ± 240 nM, 2280 ± 590 nM and 15200 ± 520 nM, respectively. Further, the “differential cytotoxicity” value in data set [1] is reported as “higher differential cytotoxicities”. In addition, the “GI50 H2228 (EML4-ALK)” value with H2228 (EML4-ALK) cells is on record as “Inactive”.
Take `CS(=O)(=O)Nc1ccc(C(=O)Nc2n[nH]c3ncc(S(=O)(=O)c4cccc(F)c4)cc23)cc1` [13c, N-(5-((3-Fluorophenyl)sulfonyl)-1H-pyrazolo[3,4-b]pyridin-3-yl)-4-(methylsulfonamido)benzamide]: the GI50 in the data set with ALK wt-TEL Ba/F3 cells is 4710 ± 3020 nM; in data set [1] (setting [3]) it was 5620 ± 2340 nM; in the data set with H2228 (EML4-ALK) cells, 9220 ± 1920 nM. In data set [1], the “differential cytotoxicity” value is on record as “higher differential cytotoxicities”. Besides, the “GI50 Ba/F3 cell lines Parental” value in the data set with Parental Ba/F3 cells is “inactive”.
For `C[C@H]1O[C@@H](O[C@H]2[C@@H](O)C[C@H](O[C@H]3[C@@H](O)C[C@H](O[C@H]4CC[C@@]5(C)[C@H](CC[C@@H]6[C@@H]5C[C@@H](O)[C@]5(C)[C@@H](C7=CC(=O)OC7)CC[C@]65O)C4)O[C@@H]3C)O[C@@H]2C)C[C@H](O)[C@@H]1O` [Digoxin], the figures for the Papp A→B at 120 min, 10 µM in data set [2] (setting [4]) and in data set [2] (setting [7]) were 0.43 ×10⁻⁶ cm/s and less than 2.5 ×10⁻⁶ cm/s, respectively. The recovery at 120 min, 10 µM in data set [2] (setting [5]) came to 96.8%; in data set [2] (setting [6]), 95.1%. The efflux ratio (commonly a quotient of directional permeabilities that is used to spot active efflux) at 120 min, 10 µM in data set [2] (120 min) was found to be 20.2. Also, the Papp B→A (usually the apparent permeability from the basolateral to the apical side of a cell layer) at 120 min, 10 µM in data set [2] (120 min, 37 °C, HBSS + 1%BSA) is 8.6 ×10⁻⁶ cm/s. For the same molecule, the “Rank P-gp” value in the data set on Caco-2 cells is on record as “Substrate”.
For `CC(C)NCC(O)COc1cccc2ccccc12` (centres unmarked) [Propranolol], the Papp A→B at 120 min, 10 µM was 16.1 ×10⁻⁶ cm/s in data set [2] (setting [4]) and more than 10 ×10⁻⁶ cm/s in data set [2] (setting [7]). Moreover, the recovery at 120 min, 10 µM in data set [2] (setting [5]) was determined as 84.8%; in data set [2] (setting [6]) it was 91.7%. In addition, the efflux ratio at 120 min, 10 µM in data set [2] (120 min) is 0.52. Further, the apparent permeability from basolateral to apical (Papp B→A) at 120 min, 10 µM in data set [2] (120 min, 37 °C, HBSS + 1%BSA) worked out at 8.42 ×10⁻⁶ cm/s.
Consider `Nc1ccc(C(=O)Nc2n[nH]c3ncc(S(=O)(=O)c4cccc(F)c4)cc23)cc1` [compound 12, 4-Amino-N-(5-((3-fluorophenyl)sulfonyl)-1H-pyrazolo[3,4-b]pyridin-3-yl)benzamide], for which the GI50 in the data set with ALK wt-TEL Ba/F3 cells is 3870 ± 1540 nM; in data set [1] (setting [3]), 1980 ± 280 nM; in the data set with H2228 (EML4-ALK) cells it was 4030 ± 1810 nM. Moreover, the “differential cytotoxicity” value in data set [1] was “higher differential cytotoxicities”. Further, the “GI50 Ba/F3 cell lines Parental” value in the data set on Parental Ba/F3 cells is given as “Inactive”.
Regarding `C[C@@H](Oc1cc(-c2cnn(C3CCNCC3)c2)cnc1N)c1c(Cl)ccc(F)c1Cl` [crizotinib, reference compound], the GI50 in the data set with Parental Ba/F3 cells came out at 1650 ± 130 nM.
